According to patent US12516131B2, “Methods for preventing acute kidney injury” (University of Maryland, Baltimore, priority 2018, dated 2026):
Where two headings read alike, the source gives them in different places.

What was measured:
[1] = Lability of reconstituted/diluted DIGIFAB (ouabain binding capacity after storage), protection by E-64; type: physicochemical; conditions: E-64 at final concentration 1 μM in diluted DIGIFAB
Description: To maintain the immuno-neutralizing activity of stored dilute DIGIFAB samples, we tested the effect of the irreversible protease (primarily papain) inhibitor, E-64.

[2] = system: renal ischemia/reperfusion (RIR) in Wistar rats; test: Example 1: plasma creatinine in rats following renal ischemia/reperfusion (45 min bilateral renal pedicle clamping); type: in vivo, rat; conditions: Ouabain infusion (10 μg/kg/day) / Saline injection; n=9; ±SE
Description: FIG. 7. Effect of DIGIFAB on plasma creatinine in rats following renal ischemia/reperfusion (RIR). Normal male Wistar rats were implanted on “Day 0” with a subcutaneous minipump to deliver ouabain (10 μg/kg/day: open symbols) or vehicle (6 μl/day; solid symbols). Beginning on Day 13, half of the ouabain-infused rats and half of the vehicle-infused rats were injected with DigiFab (triangles), and the remainder (circles) were injected with an equal volume of saline: The DigiFab-treated rats received 0.2 ml DigiFab (10 mg/ml) at 15 hr and 6 hr, and 0.1 ml DigiFab 1 hr pre-operatively. […] Plasma creatinine was measured with a commercial creatinine enzymatic assay kit. […] The subsequent decline toward baseline (measured at 72 hrs; i.e., Day 17) was more rapid (i.e., the slope was steeper) in the DigiFab-injected rats than in the saline-injected rats. […]
Male Wistar ICS rats (˜300 g) on normal diet were implanted on “Day 0” with a subcutaneous minipump to deliver ouabain—see FIG. 7—(10 μg/kg/day; open symbols) or vehicle (6 μl/day; solid symbols). […] Plasma creatinine was measured after ultrafiltration with 10K filters using a slightly modified rat creatinine enzymatic assay kit (Crystal Chem, Inc., Elk Grove Village, IL). […] The subsequent decline toward baseline (measured at 72 hrs; i.e., Day 17) was more rapid (i.e., the slope was steeper) in the DigiFab-injected rats than in the saline-injected rats. […]

[3] = rats, cited from earlier work
[4] = system: ischemia-induced renal injury; conditions: somewhat similar rat model; cited from earlier work

## CC(C)C[C@H](NC(=O)[C@H]1C[C@@H]1C(=O)O)C(=O)NCCCCNC(=N)N [E-64, (1S,2S)-2-(((S)-1-((4-guanidinobutyl)amino)-4-methyl-1-oxopentan-2-yl)carbamoyl)cyclopropanecarboxylic acid]
[1]
  effect of E-64 on stability of DIGIFAB's ouabain binding capacity: markedly improved the stability

## C[C@@H]1O[C@@H](O[C@H]2C[C@@H](O)[C@]3(CO)[C@H]4[C@H](O)C[C@]5(C)[C@@H](C6=CC(=O)OC6)CC[C@]5(O)[C@@H]4CC[C@]3(O)C2)[C@H](O)[C@H](O)[C@H]1O [Ouabain]
[2]
  Percent Recovery of plasma creatinine toward baseline, 24 to 72 hrs post-op: 38.6±17.5%
[3]; ouabain infused chronically at 3 μg/Kg/24 hr
  steady state plasma level: ~1.95 nM
[3]; ouabain infused chronically at 10 μg/Kg/24 hr
  steady state plasma level: ~2.2 nM
[3]; ouabain infused chronically at 30 μg/Kg/24 hr
  steady state plasma level: ~4.8 nM

## C[C@]12CC[C@H](O)C[C@H]1CC[C@@H]1[C@@H]2CC[C@]2(C)[C@@](O)(c3ccoc3)CC[C@]12O [rostafuroxin]
[4]
  effect on ischemia-induced renal injury: attenuated ischemia-induced renal injury
